# Results as given in US20110217355A1, “CONTACT LENS BASED BIOACTIVE AGENT DELIVERY SYSTEM” (priority 2007, published 2011).
# Read-outs that look alike come from different tables or passages of the source.
# Key:
# [1] = Surfactant release experiments from hydrogels in DI water (surface tension); format: physicochemical; details: for Slope (surfactant release vs rescaled time): p-HEMA gels, slope = √(2DSC*×100); for DSC*: surfactant diffusivity times critical aggregation concentration in p-HEMA gel, from fitting surfactant release data
# Method: The rates of surfactant release were measured in 3.5 ml of DI water with water replacement after each measurement to maintain perfect sink conditions. The surfactant concentration in the release medium was determined by measuring surface tension (σ), which was then related to the concentration through a σ(C) calibration curve. The surface tension was measured by using a Wilhelmy plate (sand blasted platinum plate) attached to a Scaime France Microbalance which was further connected to a Stathan Universal transducer (SC001).
# The rate of surfactant release from surfactant-laden contact lenses needs to be measured because an excessive release could lead to toxicity. Additionally, the rate of surfactant release impacts drug release. As described in the previous section, the surfactant concentration in the release medium was determined by measuring the surface tension of the solution, which is related to the bulk concentration (Data not shown).
# where DS is the surfactant diffusivity, C* is the critical aggregation concentration (CAC), i.e., the concentration beyond which the surfactant aggregates inside the gel, t is time, Cp is the concentration of the surfactant present as aggregates inside the hydrogel, and h is the half-thickness of the hydrogel. The above equation is valid for diffusion of any solute that is loaded in the gel above saturation limit and so a fraction of the solute precipitates into aggregates. This equation is the equivalent of the Higuchi equation that is commonly utilized to model drug release from gels [Higuchi T. Rate of release of medicaments from ointment bases containing drugs in suspension. Journal of Pharmaceutical Sciences 1961; 50(10):874-875].
# To validate the model and to understand the mechanism of surfactant transport, surfactant release studies were conducted from gels of different surfactant loadings (approximately 2%, 4% and 8% w/w in drug gel) and different gel thicknesses (˜100 and 200 μm in dry state). FIG. 8a-c show the surfactant release from 100 μm thick and 200 μm thick gels with three different surfactant concentration explored for 200 μm thick gels. The data is re-plotted in FIG. 9a-c with time axis rescaled to
# The fact that association of Brij 700 with the gel matrix is strongly dependant on the gel thickness may be due to large number of ethylene oxide (EO) units in the surfactant.
# The slope indicated in FIG. 9(a-c) represents the value of √{square root over (2DSC*×100)}.
# As mentioned above, the critical aggregation concentration for Brij 700 in p-HEMA gels is more than 1%, and so the release data from gels loaded with 1% (w/w) can be fitted to the following equation to obtain the surfactant diffusivity [Ritger P L, Peppas N A. A simple equation for description of solute release 1. Fickian and non-Fickian release from mom-swellable devices in the form of slabs, spheres, cylinders and discs. Journal of Controlled Release 1987; 5:23-36].
# Here DS is the diffusivity of the surfactant and h is the half-thickness of the gel. The diffusivity of Brij 700 from these hydrogels was determined to be 7.85×10^−17 m^2/s and subsequently the value of C* was evaluated from the already determined parameter ‘DsC*’ (Table 4) to be 2.4±1.1 mM, which is equivalent to 1.12±0.51% surfactant in a dry gel. This value is in reasonable agreement with the hypothesis C* for Brij 700 is approximately 2%, which was based on the overlapping percentage release data for 1% and 2% Brij 700 loaded gels.
# [2] = Physical properties of the surfactants obtained from literature; format: physicochemical; details: carbons in hydrophobic tail / total carbons
# Method: Table 3 lists the surfactants utilized in this study and their relevant physical properties obtained from literature. The value of ‘fh’ is also listed, this is defined as the fraction of hydrophobic chain length of the surfactant and is calculated by taking the ratio of number of carbons in the hydrophobic tail of the surfactant to the total number of carbons present in the surfactant.
# [3] = calculated earlier (Kapoor and Chauhan 2008), reported for comparison; cited from earlier work
# cornea = details: exposure to 0.05% solution for about 5 hours; cited from earlier work
substance,measurement,setting,value
POE (10) oleyl ether [Brij 97],Slope (surfactant release vs rescaled time),[1],0.4802 ± 0.010
same,DSC*,[1],11.52 (μm)^2M/s × 10^6
same,fh (fraction of hydrophobic chain length of the surfactant),[2],0.47
POE (100) stearyl ether [Brij 700],C* as surfactant in a dry gel,[1]; equivalent of the mM value,1.12±0.51%
same,C* (critical aggregation concentration),"[1]; in p-HEMA gel, evaluated from DsC* and DS",2.4 ± 1.1 mM
same,diffusivity of the surfactant from hydrogels (DS),[1]; p-HEMA gels loaded with 1% (w/w) surfactant,7.85×10^−17 m^2/s
same,Slope (surfactant release vs rescaled time),[1],0.0613 ± 0.013
same,DSC*,[1],0.19 (μm)^2M/s × 10^6
same,fh (fraction of hydrophobic chain length of the surfactant),[2],0.08
POE (20) oleyl ether [Brij 98],fh (fraction of hydrophobic chain length of the surfactant),[2],0.31
same,DSC*,[3],60.80 (μm)^2M/s × 10^6
same,Slope (surfactant release vs rescaled time),[3],1.1000 ± 0.013
POE (20) stearyl ether [Brij 78],average release of surfactant,[1]; 100 micron thick gel with 8% loading,about 30 μg/day
same,amount of surfactant released,"[1]; 100 micron thick gel with 8% loading, 10 days",around 300 μg
same,surfactant released from gel,"[1]; 100 micron thick gel with 8% loading, period of 10 days",about 10%
same,surfactant released into the post lens tear film,"[1]; at the most half of the average release, lens on an eye",≤ 15 µg/day
same,Slope (surfactant release vs rescaled time),[1],0.1846 ± 0.050
same,DSC*,[1],1.70 (μm)^2M/s × 10^6
same,fh (fraction of hydrophobic chain length of the surfactant),[2],0.31
same,corneal hydration,cornea,does not lead to any significant increase in corneal hydration
